In patent publication US20210221848A1, “POLYMYXIN DERIVATIVES AND THEIR USE IN COMBINATION THERAPY TOGETHER WITH DIFFERENT ANTIBIOTICS” (priority 2014, published 2021):
Where two headings read alike, the source gives them in different places.

What was measured:
A. baumannii [1] = assay: MIC in the presence of […] of rifampicin; format: cell-based, Acinetobacter baumannii; conditions: for MIC in combination with Rifampicin, A. baumannii ATCC BAA-747: A. baumannii ATCC BAA-747, Table 5D; for MIC in combination with Rifampicin, A. baumannii NCTC 13424: A. baumannii NCTC 13424, Table 5D
Procedure: (§1) The inoculum was prepared by making a direct suspension of isolated colonies (selected from an 18-24 hour Mueller-Hinton agar plate) adjusted to the 0.5 McFarland standard. […] The assays were performed in duplicate. […] In cases where the duplicate values varied by less than 2-fold, the lower of the two values is reported. If a variation of greater than 2-fold was observed, the assay was considered non-valid. Several of the compounds were subjected to multiple tests, and where this is the case, the MIC reflects the modal value obtained.

E. coli [2] = assay: MIC in the presence of a fixed concentration (2 μg/mL) of Rifampicin; format: cell-based, Escherichia coli; conditions: Rifampicin 2 μg/mL, Table 5D
E. coli [3] = tested on: E. coli
K. pneumoniae [4] = tested on: K. pneumoniae
K. pneumoniae [5] = assay: MIC in the presence of a fixed concentration (2 μg/mL) of Rifampicin; format: cell-based, Klebsiella pneumoniae; conditions: Rifampicin 2 μg/mL, Table 5D
Procedure: as §1

A. baumannii [6] = tested on: A. baumannii
[7] = tested on: A. baumanii strains with elevated MICs to Polymyxin B; assay: MIC against strains with elevated MICs to Polymyxin B; format: cell-based, Acinetobacter baumannii; conditions: Table 6D; for MIC A. baumannii 053: strain 053, elevated MIC to Polymyxin B; for MIC A. baumannii 056: strain 056, elevated MIC to Polymyxin B; for MIC A. baumannii 068: strain 068, elevated MIC to Polymyxin B; for MIC A. baumannii 070: strain 070, elevated MIC to Polymyxin B
Outline: (§2)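 Duplicate runs; >2-fold disagreement = invalid, <2-fold = lower value kept. Inoculum: colonies (18-24 h Mueller-Hinton agar) suspended directly to 0.5 McFarland. Multiple tests → modal MIC.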

[8] = tested on: P. aeruginosa strains with elevated MICs to Polymyxin B; assay: as above; format: cell-based, Pseudomonas aeruginosa; conditions: Table 6D; for MIC P. aeruginosa 066: strain 066, elevated MIC to Polymyxin B; for MIC P. aeruginosa 067: strain 067, elevated MIC to Polymyxin B; for MIC P. aeruginosa 065: strain 065, elevated MIC to Polymyxin B
Outline: as §2

[9] = tested on: E. coli strains with elevated MICs to Polymyxin B; assay: as above; format: cell-based, Escherichia coli; conditions: Table 6D; for MIC E. coli 059: strain 059, elevated MIC to Polymyxin B; for MIC E. coli 060: strain 060, elevated MIC to Polymyxin B; for MIC E. coli 061: strain 061, elevated MIC to Polymyxin B; for MIC E. coli 058: strain 058, elevated MIC to Polymyxin B
Outline: as §2

[10] = tested on: K. pneumoniae strains with elevated MICs to Polymyxin B; assay: as above; format: cell-based, Klebsiella pneumoniae; conditions: Table 6D; for MIC K. pneumoniae 062: strain 062, elevated MIC to Polymyxin B; for MIC K. pneumoniae 063: strain 063, elevated MIC to Polymyxin B; for MIC K. pneumoniae 064: strain 064, elevated MIC to Polymyxin B; for MIC K. pneumoniae 655: strain 655, elevated MIC to Polymyxin B
Outline: as §2

[11] = absence of a second agent, Table 6B

Substance | MIC, P. aeruginosa ATCC 27853 (P. aeruginosa; [11]) [micrograms/mL] | MIC, P. aeruginosa CCUG 59347 (P. aeruginosa; [11]) [micrograms/mL] | MIC, E. coli NCTC 13441 (E. coli [3]; [11]) [micrograms/mL] | MIC, K. pneumoniae ATCC 4352 (K. pneumoniae [4]; [11]) [micrograms/mL] | MIC, K. pneumoniae ATCC BAA-2146 (K. pneumoniae [4]; [11]) [micrograms/mL] | MIC, A. baumannii ATCC BAA-747 (A. baumannii [6]; [11]) [micrograms/mL] | MIC, A. baumannii NCTC 13424 (A. baumannii [6]; [11]) [micrograms/mL] | MIC, E. coli ATCC 25922 (E. coli [3]; [11]) [micrograms/mL] | MIC A. baumannii 053 [7] [micrograms/mL] | MIC A. baumannii 056 [7] [micrograms/mL] | MIC A. baumannii 068 [7] [micrograms/mL] | MIC A. baumannii 070 [7] [micrograms/mL] | MIC P. aeruginosa 066 [8] [micrograms/mL] | MIC P. aeruginosa 067 [8] [micrograms/mL] | MIC E. coli 059 [9] [micrograms/mL] | MIC E. coli 060 [9] [micrograms/mL] | MIC E. coli 061 [9] [micrograms/mL] | MIC K. pneumoniae 063 [10] [micrograms/mL] | MIC K. pneumoniae 064 [10] [micrograms/mL] | MIC K. pneumoniae 655 [10] [micrograms/mL] | also measured
(trans-5-cyclohexyl- piperidine)-3-carbonyl polymyxin B nonapeptide [Example D13] | 0.5 | 0.5 | 0.125 | 0.125 | 0.25 | 0.5 | 0.125 | – | – | – | – | – | – | – | – | – | – | – | – | – | MIC in combination with Rifampicin, A. baumannii ATCC BAA-747 (A. baumannii [1]): 0.125 micrograms/mL; MIC in combination with Rifampicin, A. baumannii NCTC 13424 (A. baumannii [1]): 0.06 micrograms/mL; MIC in combination with Rifampicin, E. coli ATCC 25922 (E. coli [2]; E. coli ATCC 25922): 0.06 micrograms/mL; MIC in combination with Rifampicin, E. coli NCTC 13441 (E. coli [2]): 0.125 micrograms/mL; MIC in combination with Rifampicin, K. pneumoniae ATCC 4352 (K. pneumoniae [5]): 0.125 micrograms/mL; MIC in combination with Rifampicin, K. pneumoniae ATCC BAA-2146 (K. pneumoniae [5]): 0.125 micrograms/mL
(cis-5-cyclohexyl- piperidine)-3-carbonyl polymyxin B nonapeptide [Example D10] | 1 | 2 | 4 | 8 | >8 | >8 | 8 | 4 | – | – | – | – | – | – | – | – | – | – | – | – | MIC in combination with Rifampicin, A. baumannii ATCC BAA-747 (A. baumannii [1]): 0.5 micrograms/mL; MIC in combination with Rifampicin, A. baumannii NCTC 13424 (A. baumannii [1]): ≤0.015 micrograms/mL; MIC in combination with Rifampicin, E. coli NCTC 13441 (E. coli [2]): 0.5 micrograms/mL; MIC in combination with Rifampicin, K. pneumoniae ATCC 4352 (K. pneumoniae [5]): 0.125 micrograms/mL; MIC in combination with Rifampicin, K. pneumoniae ATCC BAA-2146 (K. pneumoniae [5]): 0.25 micrograms/mL
3-aminomethyl- undecanoyl polymyxin B nonapeptide [Example D33] | 0.5 | 1 | 2 | 2 | – | 1 | 2 | 1 | 32 | 16 | 4 | 4 | 4 | 32 | 2 | 2 | 8 | 16 | 2 | 32 | MIC K. pneumoniae 062 [10]: 2 micrograms/mL
(S)-3-amino-2- ((2- trifluoromethylben- zyl)amino)propa- noyl L-Thr-L- Dap-polymyxin B heptapeptide [Example D76] | – | – | – | – | – | – | – | – | 64 | 16 | 8 | 16 | 2 | 64 | 6 | 2 | 8 | 16 | 2 | 16 | MIC, P. aeruginosa ATCC 27853 (P. aeruginosa; sole activity, Table 6C): 0.25 micrograms/mL; MIC, P. aeruginosa CCUG 59347 (P. aeruginosa; sole activity, Table 6C): 0.25 micrograms/mL; MIC, E. coli ATCC 25922 (E. coli [3]; sole activity, Table 6C): 0.125 micrograms/mL; MIC, E. coli NCTC 13441 (E. coli [3]; sole activity, Table 6C): 0.25 micrograms/mL; MIC, K. pneumoniae ATCC 4352 (K. pneumoniae [4]; sole activity, Table 6C): 0.06 micrograms/mL; MIC, K. pneumoniae ATCC BAA-2146 (K. pneumoniae [4]; sole activity, Table 6C): 0.125 micrograms/mL; MIC P. aeruginosa 065 [8]: 2 micrograms/mL; MIC, A. baumannii ATCC BAA-747 (A. baumannii [6]; sole activity, Table 6C): 0.06 micrograms/mL; MIC, A. baumannii NCTC 13424 (A. baumannii [6]; sole activity, Table 6C): 0.25 micrograms/mL; MIC E. coli 058 [9]: 4 micrograms/mL; MIC K. pneumoniae 062 [10]: 64 micrograms/mL
(trans-5- octylpiperidine)-3- carbonyl polymyxin B nonapeptide [Example D22] | 2 | 1 | 4 | – | >8 | >8 | >8 | 4 | >64 | >64 | 4 | 4 | >64 | >64 | 8 | 16 | 64 | >64 | >64 | >256 | MIC K. pneumoniae 062 [10]: >64 micrograms/mL
cis-5-cyclohexyl- piperidine-3- carbonyl L-Thr-L- Dap-polymyxin B heptapeptide [Example D85] | – | – | – | – | – | – | – | – | 64 | 4 | 8 | 8 | 16 | >128 | 16 | 4 | 16 | 64 | 16 | 32 | MIC, P. aeruginosa ATCC 27853 (P. aeruginosa; sole activity, Table 6C): 0.125 micrograms/mL; MIC, P. aeruginosa CCUG 59347 (P. aeruginosa; sole activity, Table 6C): 0.25 micrograms/mL; MIC, E. coli ATCC 25922 (E. coli [3]; sole activity, Table 6C): 0.06 micrograms/mL; MIC, E. coli NCTC 13441 (E. coli [3]; sole activity, Table 6C): 0.125 micrograms/mL; MIC, K. pneumoniae ATCC 4352 (K. pneumoniae [4]; sole activity, Table 6C): 0.06 micrograms/mL; MIC P. aeruginosa 065 [8]: 4 micrograms/mL; MIC, A. baumannii ATCC BAA-747 (A. baumannii [6]; sole activity, Table 6C): 0.015 micrograms/mL; MIC, A. baumannii NCTC 13424 (A. baumannii [6]; sole activity, Table 6C): 0.06 micrograms/mL; MIC E. coli 058 [9]: 2 micrograms/mL
